Test results as given in patent US6723333B1, “Moulded bodies made of thermoplastic polyurethane containing an active substance” (priority 1998, dated 2004).

Test system: sensor bacteria (E. coli—test strain)
Experiment: Bioimaging of released active substance by effect-dependent bioluminescence of sensor bacteria
Format: cell-based
Settings: after high temperatures of about 200° C. required for thermoplastic processing
Protocol: Microbiological evaluation and quantification of the release of active substance was performed using a new bioimaging technique. This method makes use of the selective effect-dependent bioluminescence of sensor bacteria (E. coli—test strain), in order to render visible the biological activity of the released active substance. The gyrase-inhibiting effect of ciprofloxacin was used in the system according to the invention, Texin® 5590 ciprofloxacin.
For imaging of the antibacterial effect, about 1 cm^2 sized samples of the active substance-containing material were placed in a petri dish and covered with a suspension of sensor bacteria in agarose. After an incubation period of about 30 minutes, the effect-dependent bioluminescence was assessed using a video-imaging system (e.g. EG&G Berthold, Luminograph LB 980). Antibiotic samples then appeared as luminescing areas.

## O=C(O)c1cn(C2CC2)c2cc(N3CCNCC3)c(F)cc2c1=O [ciprofloxacin]
  microbiological efficacy of the ciprofloxacin released from the polymer matrix: retained
